# Data: patent US11845919B2, “Blood culture system with low media volume” (BECTON, DICKINSON AND COMPANY, priority 2015, dated 2023)
# Tested on: antibiotic/microorganism combinations
# Experiment: TTD tests per antibiotic, Low Volume/Low Ratio vs PlusAer control
# Type: cell-based
# Details: drug amount at peak serum level in 7 ml of blood
# Method: The performance of 1:1 blood-to-broth ratio in the presence of an inhibitory antibiotic was tested in comparison to a standard diluted blood-to-broth ratio at least 1:3. Two different sample preparations for the 1:1 blood-to-broth ratio are described below.
# FIG. 3A illustrates a low volume/low ratio preparation that is prepared in a 30 ml vial with the resin and lytic media disposed in separate chambers. The preparation contained resin and 8 ml total lytic media. The sensor in the container was a solid-state fluorescent 02 sensor. The fluorescent signal changes were used to determine microorganism growth. […] The low volume/low ratio preparation provided a 1:1 blood-to-broth ratio. The total 8 ml lytic media were separated into two parts. One part of the lytic media was in the 30 ml bottle with resin and the other part of the lytic media was in a separate device and the media therein was added under sterile conditions into the 30 ml bottle at the time the bottle was inoculated with both the blood sample and the microorganisms.
# FIG. 3B illustrates the second sample preparation identified as “PlusLytic”. The PlusLytic preparation uses the BACTEC Plus Aerobic product that is commercially available, which is 30 ml of media in the 80 ml bottle. At the time of testing, 8 ml of blood, a predetermined amount of antibiotic, 10-100 CFU's of microorganisms, and an additional 20 mg of saponin were combined with the 30 ml of media in the bottle. […] The control test sample preparation is depicted in FIG. 3C and identified as “PlusAer”. The PlusAer preparation uses the commercially available BACTEC Plus Aerobic product without any additional media components. At the time of testing, 8 ml of blood, a predetermined amount of antibiotic and 10-100 CFU's of microorganisms are combined with the contents of the BACTEC Plus Aerobic product.
# Each sample preparation was tested with 64 antibiotic/microorganism combinations. The antibiotics tested were Gentamicin, Amoxicillin-Clavulanate, Aztreonam, Ceftriaxone, Cefepime, Imipenem, Meropenem, Piperacillin-Tazobactam, Vancomycin, Tigecycline, Ciprofloxacin, Tetracycline, Fluconazole. The drug quantity inoculated into each test bottle was equivalent to the drug amount at its peak serum level in 7 ml of blood. These antibiotics were combined with certain microorganisms that they generally treat. For example, Amoxicillin-Clavulanate was combined with S. aureus, E. coli, and E. faecalis. Each sample was tested for both TTD and recovery of the microorganism in the presence of drugs.
# The media was inoculated with blood sample, antibiotics and saponin a few minutes apart from each other.
row,Molecule,TTD of the Low Volume/Low Ratio preparation as compared to the PlusAer preparation
1,CN[C@H](CC(C)C)C(=O)N[C@H]1C(=O)N[C@@H](CC(N)=O)C(=O)N[C@H]2C(=O)N[C@H]3C(=O)N[C@H](C(=O)N[C@H](C(=O)O)c4cc(O)cc(O)c4-c4cc3ccc4O)[C@H](O)c3ccc(c(Cl)c3)Oc3cc2cc(c3O[C@@H]2O[C@H](CO)[C@@H](O)[C@H](O)[C@H]2O[C@H]2C[C@](C)(N)[C@H](O)[C@H](C)O2)Oc2ccc(cc2Cl)[C@H]1O [Vancomycin],faster TTD
2,CO/N=C(\C(=O)N[C@@H]1C(=O)N2C(C(=O)O)=C(CSc3nc(=O)c(=O)[nH]n3C)CS[C@H]12)c1csc(N)n1 [Ceftriaxone],faster TTD
3,Amoxicillin-Clavulanate [Amoxicillin/clavulanic acid],faster TTD
4,C[C@@H](O)[C@H]1C(=O)N2C(C(=O)O)=C(S[C@@H]3CN[C@H](C(=O)N(C)C)C3)[C@H](C)[C@H]12 [Meropenem],faster TTD
5,Gentamicin,slower TTD
